# Laboratory results as given in PubChem BioAssay (NCI).
#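 The compound was tested at five concentrations on cells cultured in 96-well plates, with a 48-hour exposure period. Abbreviation: GI50, concentration required for 50% inhibition of growth. TGI: concentration producing complete growth inhibition.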
# Experiments:
# Assay in all cases: inhibition of tumour cell growth, NCI panel, 48 h
# [1] = tested on: SK-OV-3 ovarian
# [2] = tested on: SK-MEL-28 melanoma
# [3] = tested on: U251 CNS
# [4] = tested on: CAKI-1 renal
# [5] = tested on: OVCAR-3 ovarian
# [6] = tested on: TK-10 renal
# [7] = tested on: NCI-H460 lung
# [8] = tested on: SN12C renal
# [9] = tested on: HCT-15 colon
# [10] = tested on: SNB-75 CNS
# [11] = tested on: SF-539 CNS
# [12] = tested on: NCI-H23 lung
# [13] = tested on: MCF7 breast
# [14] = tested on: MOLT-4 leukemia
# [15] = tested on: OVCAR-8 ovarian
# [16] = tested on: BT-549 breast
# [17] = tested on: RXF 393 renal
# [18] = tested on: DU-145 prostate
# [19] = tested on: COLO 205 colon
# [20] = tested on: MDA-MB-231 breast
# [21] = tested on: K-562 leukemia
# [22] = tested on: MDA-MB-435
# [23] = tested on: IGROV1 ovarian
# [24] = tested on: SK-MEL-2 melanoma
# [25] = tested on: 786-0 renal
# [26] = tested on: NCI-H226 lung
# [27] = tested on: A549 NSCLC
# [28] = tested on: T-47D breast
# [29] = tested on: A498 renal
# [30] = tested on: HS 578T breast
# [31] = tested on: UO-31 renal
# [32] = tested on: CCRF-CEM leukemia
# [33] = tested on: M14 melanoma
# [34] = tested on: KM12 colon
# [35] = tested on: OVCAR-5 ovarian
# [36] = tested on: NCI/ADR-RES ovarian
# [37] = tested on: UACC-257 melanoma
# [38] = tested on: LOX IMVI melanoma
# [39] = tested on: NCI-H522 lung
# [40] = tested on: HOP-62 NSCLC
# [41] = tested on: OVCAR-4 ovarian
# [42] = tested on: HL-60(TB) leukemia
# [43] = tested on: RPMI-8226 leukemia
# [44] = tested on: EKVX NSCLC
# [45] = tested on: PC-3 prostate
# [46] = tested on: SF-295 CNS
# [47] = tested on: SR leukemia
# [48] = tested on: HCT-116 colon
# [49] = tested on: SF-268 CNS
# [50] = tested on: HOP-92 NSCLC
# [51] = tested on: SNB-19 CNS
# [52] = tested on: MALME-3M melanoma
# [53] = tested on: ACHN renal
# [54] = tested on: HT29 colon
# [55] = tested on: SW-620 colon
# [56] = tested on: SK-MEL-5 melanoma
# [57] = tested on: HCC-2998 colon
# [58] = tested on: UACC-62 melanoma
# [59] = tested on: MDA-N
structure (smiles),measurement,setting,value
O=C1/C(=C/c2ccc(Br)cc2)C=C(c2ccccc2)N1CCc1ccccc1,GI50,[1],1.55 µM
same,TGI,[1],5 µM
same,GI50,[2],2.75 µM
same,TGI,[2],17 µM
same,GI50,[3],0.761 µM
same,TGI,[3],10.1 µM
same,GI50,[4],1.23 µM
same,TGI,[4],7.6 µM
same,GI50,[5],1.78 µM
same,TGI,[5],7.34 µM
same,GI50,[6],1.82 µM
same,TGI,[6],6.06 µM
same,GI50,[7],0.906 µM
same,TGI,[7],10.2 µM
same,GI50,[8],2.15 µM
same,TGI,[8],20.4 µM
same,GI50,[9],11.7 µM
same,TGI,[9],> 100 µM
same,GI50,[10],0.66 µM
same,TGI,[10],3.83 µM
same,GI50,[11],1.77 µM
same,TGI,[11],5.57 µM
same,GI50,[12],1.69 µM
same,TGI,[12],14.6 µM
same,GI50,[13],3.42 µM
same,TGI,[13],32.7 µM
same,GI50,[14],18.4 µM
same,TGI,[14],> 100 µM
same,GI50,[15],1.04 µM
same,TGI,[15],10 µM
same,GI50,[16],2.59 µM
same,TGI,[16],9.06 µM
same,GI50,[17],1.26 µM
same,TGI,[17],3.78 µM
same,GI50,[18],2.54 µM
same,TGI,[18],15.8 µM
same,GI50,[19],3.26 µM
same,TGI,[19],27.5 µM
same,GI50,[20],1.67 µM
same,TGI,[20],24.7 µM
same,GI50,[21],2.63 µM
same,TGI,[21],20.5 µM
same,GI50,[22],8.38 µM
same,TGI,[22],> 100 µM
same,GI50,[23],1.71 µM
same,TGI,[23],12 µM
same,GI50,[24],4.47 µM
same,TGI,[24],27.2 µM
same,GI50,[25],0.647 µM
same,TGI,[25],2.8 µM
same,GI50,[26],1.11 µM
same,TGI,[26],4.57 µM
same,GI50,[27],1.37 µM
same,TGI,[27],11.9 µM
same,GI50,[28],13.3 µM
same,TGI,[28],> 100 µM
same,GI50,[29],0.652 µM
same,TGI,[29],5.44 µM
same,GI50,[30],0.831 µM
same,TGI,[30],5.33 µM
same,GI50,[31],2.82 µM
same,TGI,[31],19.8 µM
same,GI50,[32],7.76 µM
same,TGI,[32],> 100 µM
same,GI50,[33],3.53 µM
same,TGI,[33],71.8 µM
same,GI50,[34],43.6 µM
same,TGI,[34],> 100 µM
same,GI50,[35],4.28 µM
same,TGI,[35],40.2 µM
same,GI50,[36],1.08 µM
same,TGI,[36],8.01 µM
same,GI50,[37],2.82 µM
same,TGI,[37],18.7 µM
same,GI50,[38],0.82 µM
same,TGI,[38],10.8 µM
same,GI50,[39],6.54 µM
same,TGI,[39],87.1 µM
same,GI50,[40],0.347 µM
same,TGI,[40],1.22 µM
same,GI50,[41],0.554 µM
same,TGI,[41],3.13 µM
same,GI50,[42],75.1 µM
same,TGI,[42],> 100 µM
same,GI50,[43],9.44 µM
same,TGI,[43],86.4 µM
same,GI50,[44],1.95 µM
same,TGI,[44],19 µM
same,GI50,[45],1.2 µM
same,TGI,[45],5.06 µM
same,GI50,[46],0.332 µM
same,TGI,[46],1.59 µM
same,GI50,[47],11.6 µM
same,TGI,[47],> 100 µM
same,GI50,[48],0.394 µM
same,TGI,[48],11.7 µM
same,GI50,[49],2.27 µM
same,TGI,[49],16.3 µM
same,GI50,[50],0.32 µM
same,TGI,[50],2.63 µM
same,GI50,[51],1.21 µM
same,TGI,[51],5.03 µM
same,GI50,[52],1.5 µM
same,TGI,[52],6.64 µM
same,GI50,[53],0.65 µM
same,TGI,[53],11 µM
same,GI50,[54],4.73 µM
same,TGI,[54],> 100 µM
same,GI50,[55],5.34 µM
same,TGI,[55],> 100 µM
same,GI50,[56],3.89 µM
same,TGI,[56],20.8 µM
same,GI50,[57],7.52 µM
same,TGI,[57],> 100 µM
C[C@]12CC[C@@H]3c4ccc(O)cc4CC[C@H]3[C@@H]1C/C(=C\c1ccncc1)C2=O,TGI,[1],> 100 µM
same,TGI,[2],> 100 µM
same,TGI,[3],> 100 µM
same,TGI,[4],> 100 µM
same,TGI,[5],50.5 µM
same,TGI,[6],> 100 µM
same,TGI,[7],> 100 µM
same,TGI,[9],> 100 µM
same,TGI,[10],> 100 µM
same,TGI,[11],28.9 µM
same,TGI,[12],> 100 µM
same,TGI,[13],> 100 µM
same,TGI,[58],50.9 µM
same,TGI,[14],> 100 µM
same,TGI,[15],56.3 µM
same,TGI,[17],> 100 µM
same,TGI,[18],91.6 µM
same,TGI,[19],> 100 µM
same,TGI,[20],> 100 µM
same,TGI,[21],> 100 µM
same,TGI,[22],74.9 µM
same,TGI,[23],68.3 µM
same,TGI,[24],48.7 µM
same,TGI,[26],68.6 µM
same,TGI,[27],> 100 µM
same,TGI,[28],> 100 µM
same,TGI,[29],91.4 µM
same,TGI,[30],62.7 µM
same,TGI,[31],> 100 µM
same,TGI,[32],> 100 µM
same,TGI,[33],> 100 µM
same,TGI,[34],37.6 µM
same,TGI,[35],> 100 µM
same,TGI,[36],60.1 µM
same,TGI,[37],> 100 µM
same,TGI,[38],58.9 µM
same,TGI,[40],> 100 µM
same,TGI,[41],> 100 µM
same,TGI,[42],68 µM
same,TGI,[43],> 100 µM
same,TGI,[44],> 100 µM
same,TGI,[45],> 100 µM
same,TGI,[46],> 100 µM
same,TGI,[47],> 100 µM
same,TGI,[49],> 100 µM
same,TGI,[50],> 100 µM
same,TGI,[51],> 100 µM
same,TGI,[52],54.8 µM
same,TGI,[53],> 100 µM
same,TGI,[54],72.2 µM
same,TGI,[55],> 100 µM
same,TGI,[56],27.9 µM
same,TGI,[57],> 100 µM
same,TGI,[59],> 100 µM
COc1ccccc1N/C(=C\C(=O)C(=O)NC12CC3CC(CC(C3)C1)C2)c1ccccc1,TGI,[1],> 10 µM
same,TGI,[2],> 10 µM
same,TGI,[3],> 10 µM
same,TGI,[4],> 10 µM
same,TGI,[5],> 10 µM
same,TGI,[6],> 10 µM
same,TGI,[7],> 10 µM
same,TGI,[8],> 10 µM
same,TGI,[9],> 10 µM
same,TGI,[10],> 10 µM
same,TGI,[11],> 10 µM
same,TGI,[12],> 10 µM
same,TGI,[13],> 10 µM
same,TGI,[14],> 10 µM
same,TGI,[15],> 10 µM
same,TGI,[17],> 10 µM
same,TGI,[18],> 10 µM
same,TGI,[19],> 10 µM
same,TGI,[20],> 10 µM
same,TGI,[21],> 10 µM
same,TGI,[22],> 10 µM
same,TGI,[23],> 10 µM
same,TGI,[24],> 10 µM
same,TGI,[25],> 10 µM
same,TGI,[26],> 10 µM
same,TGI,[28],> 10 µM
same,TGI,[29],> 10 µM
same,TGI,[30],> 10 µM
same,TGI,[31],> 10 µM
same,TGI,[32],> 10 µM
same,TGI,[33],> 10 µM
same,TGI,[34],> 10 µM
same,TGI,[35],> 10 µM
same,TGI,[36],> 10 µM
same,TGI,[37],> 10 µM
same,TGI,[38],> 10 µM
same,TGI,[39],> 10 µM
same,TGI,[40],> 10 µM
same,TGI,[41],> 10 µM
same,TGI,[42],> 10 µM
same,TGI,[43],> 10 µM
same,TGI,[44],> 10 µM
same,TGI,[45],> 10 µM
same,TGI,[46],> 10 µM
same,TGI,[47],> 10 µM
same,TGI,[49],> 10 µM
same,TGI,[52],> 10 µM
same,TGI,[53],> 10 µM
same,TGI,[54],> 10 µM
same,TGI,[55],> 10 µM
same,TGI,[56],> 10 µM
same,TGI,[57],> 10 µM
same,TGI,[59],> 10 µM
